One series is described as follows: in vivo. The following applies: mouse, in vivo, po.
Series [1] has as its system edema induced by carrageenan. As to the kind of experiment: Anti-inflammatory activity, carrageenin-induced oedema. The format is in vivo, rat. The note with it: po; 500 mg/kg p.o. rat; read-out: % inhibition of edema induced by carrageenan. The source says:
Beginning, therefore, with D-glucose, we have prepared 1,2:5,6-di-O-isopropylidene-α-D-glucofuranose (II): [drawing 2] as well as 1,2-O-isopropylidene-α-D-glucofuranose and 1,2-O-isopropylidene-3,5,6-tri-O-benzyl-α-D-glucofuranose (1; Glen W. L., Myers G. S., Grant G. A., J. Chem. Soc., 2568/1951; (2) Meyer A. S., Reichstein T., Helv. Chim. Acta, 29, 139/1946; (3) Huber G., Rossi A., Helv. Chim. Acta, 51, 1185/1968) and have compared these compounds with (I) for anti-inflammatory activity against carrageenin-induced oedema (500 mg/kg, p.o. in rats).
On the technique in general: Carrageenan injected into the paw causes an acute inflammation.

The next series has as its system edema induced by dextran. The series can be described thus: Anti-inflammatory activity, dextran-induced edema. The format is in vivo, rat. The following applies: po; 500 mg/kg p.o. rat; read-out: % inhibition of edema induced by dextran.
For series [2], the system named is edema induced by formalin. As to the kind of experiment: Anti-inflammatory activity, formalin-induced edema. The format is in vivo, rat. The note with it: po; 500 mg/kg p.o. rat; read-out: % inhibition of edema induced by formalin.
Method: (§1) Pharmacological tests were carried out to evaluate the acute toxicity, anti-inflammatory and capillary permeability action, antipyretic, analgesic and anti-spasmodic in vitro action.
Another series in a line: Antipyretic activity. The format is in vivo, rat. The note with it: for Antipyretic activity (potency in comparison with aspirin = 100): 400 mg/kg p.o. rat; for Antipyretic action (in words): rat, in vivo.
The nature of series [3]: Analgesic activity, hot plate test. It counts as in vivo, mouse. The note with it: po; 500 mg/kg p.o. mouse; hot plate test; read-out: Analgesic activity, increase of reaction time %.
Method: as §1
Series [4] in a line: Analgesic activity, protection from writhing. It counts as in vivo, mouse. The following applies: po; 500 mg/kg p.o. mouse; read-out: Analgesic activity, protection from writhing %. (In general: In writhing tests, fewer writhes than in controls are read as antinociception.)
Method: as §1
In a further series the test system is spasm by histamine. The series can be described thus: Antispasmodic activity in vitro, spasm by histamine.
The subject of the next series is spasm by acetylcholine. As to the kind of experiment: Antispasmodic activity in vitro, spasm by acetylcholine.
The subject of another series is capillary permeability. As to the kind of experiment: Capillary permeability test. The note with it: 500 mg/kg p.o. mouse.
The next series has as its system granuloma. The series can be described thus: Granuloma cotton pellet test. The note with it: for inhibition in vivo at 200 mg/kg: Rattus norvegicus, po, read-out: % inhibition of granuloma.
Series [5] has as its system oedema induced by carrageenin, dextran and formalin. The series can be described thus: Anti-inflammatory activity tests (oedema by carrageenin, dextran and formalin). The following applies: rat. It counts as in vivo.
Method: as §1

Bounds are passed on as bounds.

We go through 9 molecules from patent US4251520A, “Glucofuranose derivatives” (priority 1976, dated 1981).

A word on the LD50: it is the dose at which mortality reaches 50%. High values mean a less toxic substance, low ones a more toxic substance.

Method for Antipyretic activity: as §1
Method for capillary permeability: as §1
Method for edema induced by dextran: as §1
Method for granuloma: as §1
Method for spasm by acetylcholine: as §1
Method for spasm by histamine: as §1

On to `CCN(CC)CCOC1C(C2COC(C)(C)O2)OC2OC(C)(C)OC21` (stereo not shown) [XV], for which the 50% lethal dose (LD50) in “in vivo” was 3000 mg/kg. Further, the inhibition in vivo at 500 mg/kg in [1] was found to be 60%; in the series on edema induced by dextran it was 58%; in series [2], 4%; in series [4], 0%. Also, the “Antipyretic activity (potency in comparison with aspirin = 100)” value in “Antipyretic activity” is recorded as 8%. Further, in [3], the change in vivo at 500 mg/kg stood at 10%. In the series on spasm by histamine, the “Antispasmodic activity in vitro, ED50, inhib. of spasm by histamine” value is 100 mg/L. In the series on spasm by acetylcholine, the “Antispasmodic activity in vitro, ED50, inhib. of spasm by acetylcholine” value was greater than 100 mg/L. The “Capillary permeability, decrease %” value in the series on capillary permeability was 20%. Also, the inhibition in vivo at 200 mg/kg in the series on granuloma came to 0%.
Molecule `CC(C)N(CCOC1C(C2COC(C)(C)O2)OC2OC(C)(C)OC21)C(C)C` (stereo not shown) [XVII] registered an LD50 in “in vivo” of 1000 mg/kg. Besides, the inhibition in vivo at 500 mg/kg is 73% in series [1], 35% in the series with edema induced by dextran, 32% in [2] and 40% in series [4]. The “Antipyretic activity (potency in comparison with aspirin = 100)” value in “Antipyretic activity” is reported as 15%. In addition, the change in vivo at 500 mg/kg in [3] turned out to be 0%. The “Antispasmodic activity in vitro, ED50, inhib. of spasm by histamine” value with spasm by histamine is 70 mg/L. Also, in the series with spasm by acetylcholine, the “Antispasmodic activity in vitro, ED50, inhib. of spasm by acetylcholine” value was 100 mg/L. For the same molecule, in the series with capillary permeability, the “Capillary permeability, decrease %” value is on record as 32%. For the same molecule, the inhibition in vivo at 200 mg/kg with granuloma was 0%.
Take `CC1(C)OCC(C2OC3OC(C)(C)OC3C2OCCN2CCOCC2)O1` (stereo not shown) [XX]: the LD50 in “in vivo” stood at 1500 mg/kg. Moreover, the inhibition in vivo at 500 mg/kg in series [1] stood at 59%; in the series on edema induced by dextran, 65%; in [2], 43%; in series [4], 0%. Also, the “Antipyretic activity (potency in comparison with aspirin = 100)” value in the series “Antipyretic activity” amounted to 14%. Further, in series [3], the change in vivo at 500 mg/kg was found to be 40%. In the series with spasm by histamine, the “Antispasmodic activity in vitro, ED50, inhib. of spasm by histamine” value was greater than 100 mg/L. In the series with spasm by acetylcholine, the “Antispasmodic activity in vitro, ED50, inhib. of spasm by acetylcholine” value is greater than 100 mg/L. Moreover, the “Capillary permeability, decrease %” value in the series on capillary permeability is given as 58%. In addition, in the series with granuloma, the inhibition in vivo at 200 mg/kg came out at 0%.
`CCCCCOC1C(C2COC(C)(C)O2)OC2OC(C)(C)OC21` [VII, 3-n-Pentyl-1,2:5,6-di-O-isopropylidene-α-D-glucofuranose]: the LD50 in “in vivo” is 4000 mg/kg. The inhibition in vivo at 500 mg/kg was 62% in [1], 31% in the series with edema induced by dextran, 48% in series [2] and 20% in series [4]. The “Antipyretic activity (potency in comparison with aspirin = 100)” value in the series “Antipyretic activity” was determined as 0%. Also, the change in vivo at 500 mg/kg in series [3] turned out to be 0%. Besides, in the series with spasm by histamine, the “Antispasmodic activity in vitro, ED50, inhib. of spasm by histamine” value is greater than 100 mg/L. In the series on spasm by acetylcholine, the “Antispasmodic activity in vitro, ED50, inhib. of spasm by acetylcholine” value was greater than 100 mg/L. Moreover, in series [5], the “Anti-inflammatory potency compared with aspirin and phenylbutazone (in words)” value was “as potent as or more potent than aspirin and phenylbutazone”. In addition, in series [5], the “Inhibition of oedema induced by carrageenin, dextran and formalin, compared with (I) (in words)” value (shortened to “Inhibition … compared with (I) (in words)”) is given as “clearly more active than (I)”. Further, the “Capillary permeability, decrease %” value in the series with capillary permeability was found to be 4%. Further, in the series with granuloma, the inhibition in vivo at 200 mg/kg amounted to 19%. Moreover, the “Inhibitory activity in the granuloma cotton pellet test (in words)” value in the series with granuloma (rat, in vivo) is “some inhibitory activity”.
In turn, `CN(C)CCOC1C(C2COC(C)(C)O2)OC2OC(C)(C)OC21` [XIV, 3-(2-Dimethylaminoethyl)-1,2:5,6-di-O-isopropylidene-α-D-glucofuranose] gave an LD50 in the series “in vivo” of 1500 mg/kg. For the same molecule, the inhibition in vivo at 500 mg/kg was 62% in series [1], 54% in the series with edema induced by dextran, 28% in series [2] and 20% in series [4]. Moreover, in the series “Antipyretic activity”, the “Antipyretic activity (potency in comparison with aspirin = 100)” value turned out to be 43%. Besides, the “Antipyretic action (in words)” value in the series “Antipyretic activity” was “retained”. Besides, the change in vivo at 500 mg/kg in series [3] stood at 10%. Further, the “Antispasmodic activity in vitro, ED50, inhib. of spasm by histamine” value with spasm by histamine was 100 mg/L. The “Antispasmodic activity in vitro, ED50, inhib. of spasm by acetylcholine” value with spasm by acetylcholine is greater than 100 mg/L. Also, the “Capillary permeability, decrease %” value in the series on capillary permeability turned out to be 35%. Moreover, the inhibition in vivo at 200 mg/kg in the series with granuloma stood at 0%.
The molecule `CC1(C)OCC(C2OC3OC(C)(C)OC3C2OCCN2CCCC2)O1` (stereo not shown) [XVIII] yielded an LD50 in “in vivo” of 1500 mg/kg. Also, the inhibition in vivo at 500 mg/kg in [1] was 68%; in the series with edema induced by dextran it was 64%; in series [2], 38%; in [4], 0%. Moreover, the “Antipyretic activity (potency in comparison with aspirin = 100)” value in the series “Antipyretic activity” is given as 0%. The change in vivo at 500 mg/kg in [3] amounted to 10%. In addition, the “Antispasmodic activity in vitro, ED50, inhib. of spasm by histamine” value in the series with spasm by histamine was determined as 100 mg/L. Besides, in the series with spasm by acetylcholine, the “Antispasmodic activity in vitro, ED50, inhib. of spasm by acetylcholine” value was greater than 100 mg/L. Besides, in the series with capillary permeability, the “Capillary permeability, decrease %” value came to 50%. Further, the inhibition in vivo at 200 mg/kg in the series with granuloma is 0%.
`CCCN(CCC)CCOC1C(C2COC(C)(C)O2)OC2OC(C)(C)OC21` (stereo not shown) [XVI]: the LD50 in the series “in vivo” is 750 mg/kg. The inhibition in vivo at 500 mg/kg amounted to 23% in [1], 41% in the series on edema induced by dextran, 24% in [2] and 0% in series [4]. Further, the “Antipyretic activity (potency in comparison with aspirin = 100)” value in “Antipyretic activity” is given as 29%. The change in vivo at 500 mg/kg in series [3] is 0%. Moreover, in the series on spasm by histamine, the “Antispasmodic activity in vitro, ED50, inhib. of spasm by histamine” value turned out to be 12 mg/L. In addition, the “Inhibition of spasms induced by histamine (in words)” value with spasm by histamine was “inhibited spasms induced by histamine at relatively low concentrations”. For the same molecule, the “Antispasmodic activity in vitro, ED50, inhib. of spasm by acetylcholine” value with spasm by acetylcholine is 100 mg/L. Also, in the series on granuloma, the inhibition in vivo at 200 mg/kg came to 0%.
Molecule `C#CCOC1C(C2COC(C)(C)O2)OC2OC(C)(C)OC21` (stereo not shown) [X] came in with an LD50 in “in vivo” of 1500 mg/kg. The inhibition in vivo at 500 mg/kg was 53% in series [1], 65% in the series with edema induced by dextran, 36% in [2] and 20% in [4]. The “Antipyretic activity (potency in comparison with aspirin = 100)” value in “Antipyretic activity” is 107%. The “Antipyretic action (in words)” value in the series “Antipyretic activity” is “retained”. The change in vivo at 500 mg/kg in series [3] amounted to 0%. In addition, the “Antispasmodic activity in vitro, ED50, inhib. of spasm by histamine” value in the series with spasm by histamine amounted to 50 mg/L. For the same molecule, the “Activity against spasms produced by acetylcholine (in words)” value in the series on spasm by acetylcholine is listed as “moderately active”. Moreover, in the series with spasm by acetylcholine, the “Antispasmodic activity in vitro, ED50, inhib. of spasm by acetylcholine” value was found to be 50 mg/L. In series [5], the “Anti-inflammatory potency compared with aspirin and phenylbutazone (in words)” value is “as potent as or more potent than aspirin and phenylbutazone”. Besides, in series [5], the “Inhibition … compared with (I) (in words)” value is given as “clearly more active than (I)”. In addition, the inhibition in vivo at 200 mg/kg in the series on granuloma came out at 0%.
The molecule `COC1C(C2COC(C)(C)O2)OC2OC(C)(C)OC21` (stereo not shown) [III] displayed an LD50 in “in vivo” of 2000 mg/kg. Further, the inhibition in vivo at 500 mg/kg came to 51% in [1], 35% in the series with edema induced by dextran, 25% in [2] and 20% in [4]. In addition, the “Antipyretic activity (potency in comparison with aspirin = 100)” value in “Antipyretic activity” worked out at 70%. For the same molecule, the “Antipyretic action (in words)” value in “Antipyretic activity” is “retained”. Also, in series [3], the change in vivo at 500 mg/kg was found to be 20%. In addition, the “Antispasmodic activity in vitro, ED50, inhib. of spasm by histamine” value with spasm by histamine stood at 100 mg/L. For the same molecule, in the series on spasm by acetylcholine, the “Antispasmodic activity in vitro, ED50, inhib. of spasm by acetylcholine” value is greater than 100 mg/L. The “Anti-inflammatory potency compared with aspirin and phenylbutazone (in words)” value in series [5] is “as potent as or more potent than aspirin and phenylbutazone”. Further, in series [5], the “Inhibition … compared with (I) (in words)” value is reported as “clearly more active than (I)”. Moreover, the “Capillary permeability, decrease %” value with capillary permeability stood at 37%. The inhibition in vivo at 200 mg/kg in the series with granuloma was 0%.
